According to US8372408B2, “Use of Phaeodactylum algae extract for depigmenting the skin” (LVMH Recherche, priority 2007, dated 2013):
Residues, ends and D or L forms follow the SMILES beside them. *: point of attachment. Cbz = O=C(OCc1ccccc1)*

Legend:
[1] = target: T1, proteasome (trypsin-like activity) of MNT1 cells (Homo sapiens, UniProt Q99436); test: Proteasome LSTR (trypsin-like) activity assay on lyzates of treated MNT1 cells; type: cell-based; conditions: for Proteasome activity at 72 hours, Trypsin-like: MNT1 cells lyzed 72 hours after treatment, palmitic or linoleic acid 25 μM, Phaeodactylum 5 μg/ml, Mg132 120 nM where stated
T1 construct: introduce in duplicate a fixed volume of cell lyzate; endogenous in cells; host or cells: MNT1 human melanocyte line (lysate)
T1 sequence (Q99436 44-277): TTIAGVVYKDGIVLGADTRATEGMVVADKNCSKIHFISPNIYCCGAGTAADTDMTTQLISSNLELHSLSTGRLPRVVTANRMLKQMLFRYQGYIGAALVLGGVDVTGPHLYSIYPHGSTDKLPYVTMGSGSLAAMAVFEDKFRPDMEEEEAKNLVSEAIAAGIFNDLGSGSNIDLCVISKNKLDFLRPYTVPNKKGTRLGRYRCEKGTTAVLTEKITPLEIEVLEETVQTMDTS
Description: 2.1 Treatment of MNT1 Cells (Human Melanocyte Cell Lines) in Order to Assay the Proteasome and Tyrosinase Activities MNT1, 10^6 cells/dish 35 mm in diameter, in triplicate
Treatment on D1 • Linoleic acid 25 μM • Palmitic acid 25 μM • Phaeodactylum 5 μg/ml +1% BSA+Vitamin E 50 μM+Vitamin C 1 mM • Linoleic acid 25 μM • Palmitic acid 25 μM • Phaeodactylum 5 μg/ml Stirring with a magnetic bar at 37° C. for 1 hour • 2nd treatment on D4 +Cycloheximide 1 μg/ml (protein synthesis inhibitor)
+120 nM Mg132 for the assay of the tyrosinase activity. • Preparation of the lyzates after 4 hours 2 rinses with PBS (phosphate-buffered saline)
(§1) On a bed of ice; recovery in 150 μl of lysis buffer by scraping.
Freezing at […]. • Protein assay via the Bradford method • Proteasome activity assay The cells are rinsed twice with PBS and each peptidase activity of the proteasome is then determined by using a fluorogenic peptide substrate specific for each of the activities, in the presence and in the absence of a specific proteasome inhibitor, MG 132 (Leu-Leu-Leucinal). The peptide substrate products are the following: Leu-Leu-Val-Tyr-amc (LLVY-amc) for the chymotrypsin-like activity, Leu-Leu-Glu-na (LLE-na) for the post-glutamic hydrolase activity and Leu-Ser-Thr-Arg-amc (LSTR-amc) for the trypsin-like activity. The principle of the assay consists in monitoring over time the increase in fluorescence due to the release of the fluorophores aminomethylcoumarin or β-naphthylamine from the fluorogenic peptides. […]
Proteasome (LSTR Activity (Trypsin-Like)) Nt Boc LSTR-MCA→Nt Boc LSTR+MCA fluorescent Reading on a spectrofluorimeter at an excitation wavelength of 350 nm and an emission wavelength of 440 nm. c.4—Assay of the LSTR Activity • In a 96-well plate, introduce in duplicate a fixed volume of cell lyzate (determined from the lowest protein concentration of the samples, which should correspond to 50 μg of protein) and make up to 100 μl with TRIS buffer. • Add 100 μl of LSTR-MCA substrate prediluted to 80 μM in the TRIS buffer (40 μM final). • In parallel, check that it is indeed the proteasome activity by testing the inhibitor Mg132. • Add to 50 μg of protein 10 μl of solution of Mg132 prediluted to 400 μM in the TRIS buffer (20 μM final) and make up to 100 μl with TRIS buffer. Next, add 100 μl of LSTR substrate prediluted to 80 μM in the TRIS buffer (40 μM final). • Take the spectrofluorimeter readings at an excitation wavelength of 355 nm and an emission wavelength of 460 nm at a gain of 30, every 2 minutes, for 30 minutes.
The raw results are expressed in F.U./min. […]
(§2) For the assay of the proteasome activities, the cells were lyzed at 72 hours after the cell treatment, and the protein concentration was determined.

[2] = target: T2, proteasome (post-glutamic hydrolase activity) of MNT1 cells (Homo sapiens, UniProt P28072); test: Proteasome LLE (post-glutamic hydrolase) activity assay on lyzates of treated MNT1 cells; type: cell-based; conditions: for post-glutamic hydrolase peptidase activity of the proteasome, change in words: 72 hours after addition, MNT-1 melanocytes, FIG. 1B; for Proteasome activity at 72 hours, Post-glutamic hydrolase: MNT1 cells lyzed 72 hours after treatment, palmitic or linoleic acid 25 μM, Phaeodactylum 5 μg/ml, Mg132 120 nM where stated
T2 construct: introduce in duplicate a fixed volume of cell lyzate; endogenous in cells; host or cells: MNT1 human melanocyte line (lysate)
T2 sequence (P28072 1-239): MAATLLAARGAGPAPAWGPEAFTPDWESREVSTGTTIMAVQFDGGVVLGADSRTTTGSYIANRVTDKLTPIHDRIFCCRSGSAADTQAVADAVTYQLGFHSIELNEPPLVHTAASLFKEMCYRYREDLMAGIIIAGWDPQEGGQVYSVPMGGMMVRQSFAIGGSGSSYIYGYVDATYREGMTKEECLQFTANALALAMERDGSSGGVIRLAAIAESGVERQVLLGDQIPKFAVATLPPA
Description: 2.1 Treatment of MNT1 Cells (Human Melanocyte Cell Lines) in Order to Assay the Proteasome and Tyrosinase Activities
MNT1, 10^6 cells/dish 35 mm in diameter, in triplicate
Treatment on D1 • Linoleic acid 25 μM • Palmitic acid 25 μM • Phaeodactylum 5 μg/ml
+1% BSA+Vitamin E 50 μM+Vitamin C 1 mM • Linoleic acid 25 μM • Palmitic acid 25 μM • Phaeodactylum 5 μg/ml
Stirring with a magnetic bar at 37° C. for 1 hour • 2nd treatment on D4
+Cycloheximide 1 μg/ml (protein synthesis inhibitor)
+120 nM Mg132 for the assay of the tyrosinase activity. • Preparation of the lyzates after 4 hours
2 rinses with PBS (phosphate-buffered saline)
as §1
Freezing at ±20° C. • Protein assay via the Bradford method • Proteasome activity assay
The cells are rinsed twice with PBS and each peptidase activity of the proteasome is then determined by using a fluorogenic peptide substrate specific for each of the activities, in the presence and in the absence of a specific proteasome inhibitor, MG 132 (Leu-Leu-Leucinal). The peptide substrate products are the following: Leu-Leu-Val-Tyr-amc (LLVY-amc) for the chymotrypsin-like activity, Leu-Leu-Glu-na (LLE-na) for the post-glutamic hydrolase activity and Leu-Ser-Thr-Arg-amc (LSTR-amc) for the trypsin-like activity. The principle of the assay consists in monitoring over time the increase in fluorescence due to the release of the fluorophores aminomethylcoumarin or β-naphthylamine from the fluorogenic peptides.
b)—LLE Activity (Post-Glutamic Hydrolase)
The following cleavage reaction is studied: • Proteasome (LLE activity • (post-glutamic hydrolase) N-CBZ-LLE-NA→N-CBZ-LLE-+NA fluorescent
Reading on a spectrofluorimeter at an excitation wavelength of 333 nm and an emission wavelength of 410 nm.
The process is performed as follows: • In a 96-well plate, introduce in duplicate a fixed volume of cell lyzate (determined from the lowest protein concentration of the samples, which should correspond to 20 μg of protein) and make up to 100 μl with TRIS buffer. • Add 100 μl of LLE-NA substrate prediluted to 300 μM in the TRIS buffer (150 μM final). • Take the spectrofluorimeter readings at an excitation wavelength of 340 nm and an emission wavelength of 410 nm at a gain of 83 every 2 minutes, for 35 minutes.
The raw results are expressed in F.U./min.
The assay is performed on 200 μl of reaction volume containing a volume V of cell lyzate set as a function of the protein concentrations of the lyzates.
From the calibration range, the activity may be expressed in pmol of MCA released/minute/mg of protein:
as §2

| SMILES | Proteasome activity at 72 hours, Trypsin-like [1] | post-glutamic hydrolase peptidase activity of the proteasome, change in words [2] | Proteasome activity at 72 hours, Post-glutamic hydrolase [2] | trypsin-like peptidase activity of the proteasome, change in words ([1]; 72 hours after addition, MNT-1 melanocytes, FIG. 1C) |
| --- | --- | --- | --- | --- |
| CCCCCCCCCCCCCCCC(=O)O [Palmitic acid] | 1998 ± 261 pmol/min/mg | reduced | 54 ± 6 nmol/min/mg |  |
| CC(C)C[C@@H](C=O)NC(=O)[C@H](CC(C)C)NC(=O)[C@H](CC(C)C)NC(=O)OCc1ccccc1 [Control + Mg132, Z-Leu-Leu-Leu-CHO] (Cbz-Leu-Leu-Leu-aldehyde) | 627 ± 282 pmol/min/mg |  | 42 ± 5 nmol/min/mg |  |
| CCCCC/C=C\C/C=C\CCCCCCCC(=O)O [Linoleic acid] | 2848 ± 424 pmol/min/mg | increase and do so significantly | 78 ± 3.6 nmol/min/mg | increase and do so significantly |
